Measurements taken from PMC13288762 (Frontiers in Medicine, 2026).

Assays:
[1] = system: Mdr2−/− mice (model of PSC); parameters: method as in PMID 10711453; details: cited from earlier work
[2] = system: Mdr2−/− mice (model of PSC); assay: Liver damage, bile acids and inflammation in Mdr2−/− mice (H&E, TBA kit, F4/80 IHC); format: in vivo, mouse; details: 20 mg/kg IP daily, 2 weeks
Method: (§1) Animal procedures were performed according to protocols approved by Indiana University School of Medicine Institutional Animal Care and Use Committee. […] Male Mdr2^−/− mice (n = 8) were collected at twelve-weeks for PSC model. Twelve-week-old male Friend Virus B NIH Jackson (FVB/NJ [FVB/wild type (WT) control], n = 8) mice were used as control WT for Mdr2^−/−.
(§2) In all groups, serum, liver, cholangiocytes, and cholangiocyte supernatants were collected as described ([18], [19]). The collected liver was divided into three portions: (i) snap-frozen tissue; (ii) OCT-embedded blocks (5 μm cryosections) for immunofluorescence (IF); and (iii) formalin-fixed, paraffin-embedded (FFPE) blocks (4 μm sections) for immunohistochemistry (IHC).
Liver damage was assessed by hematoxylin and eosin (H&E) staining in FFPE mouse liver sections and scored in a coded fashion to determine portal inflammation. Serum and liver total bile acids (TBAs) were determined using a TBA Assay Kit (Colorimetric, Sigma-Aldrich).
(§3) Liver inflammation was evaluated by IHC for F4/80 in FFPE mouse liver sections, and positive cells were quantified by Image-Pro Premier software (Rockville, MD). Liver MC infiltration was detected with IHC for tryptase β-2 (Tpsb2) and mucosal MC chymase-1 (mMCP1) in liver sections. MCs were semi-quantified as Tpsb2 or mMCP1 positivite cell number/total area with Image-Pro Premier software (Rockville, MD). MC activation was determined by qPCR for Fc fragment of IgE, high affinity I, receptor for alpha polypeptide (Fcer1a), Mcpt1 and Tpsb2 in total liver samples.
(§4) Since we found increased chymase levels in human PSC livers, we evaluated the pharmacological inhibition of chymase in modulating PSC in Mdr2^−/− mice. […] All treatment groups were compared to Mdr2^−/− mice.

[3] = system: Mdr2−/− mice (model of PSC); assay: Ductular reaction and biliary senescence in Mdr2−/− mice (CK-19 IHC, p16 IF, qPCR); format: in vivo, mouse; details: 20 mg/kg IP
Method: as §1, §2
Ductular reaction was evaluated in FFPE mouse liver sections by IHC for CK-19 to specifically mark bile ducts. Stained slides were scanned by a digital scanner (Aperio AT2 scanner; Leica Biosystems). CK-19-positive area was quantified using the Image-Pro Premier software (Rockville, MD). Biliary senescence was evaluated by: (i) IF for p16 expression in frozen liver sections co-stained with CK-19 (to mark bile ducts) and (ii) mRNA expression of cellular senescence markers, cyclin dependent kinase inhibitor 2a (Cdkn2a; gene for p16), cyclin dependent kinase inhibitor 2c (Cdkn2c, gene for p18) and galactosidase, beta 1-like (Glb1l) in isolated mouse cholangiocytes ([3], [19]).
as §4

aortic aneurysm model = system: aortic aneurysm model; parameters: method as in PMID 31128093; details: 10 mg/kg for 4 weeks; cited from earlier work
[4] = parameters: method as in earlier work; details: Phase 2 clinical trial, atopic dermatitis; cited from earlier work
[5] = system: Mdr2−/− mice (model of PSC); assay: Liver fibrosis in Mdr2−/− mice (FG/SR, hydroxyproline, desmin IF, qPCR); format: in vivo, mouse
Method: as §1, §2
Collagen deposition was determined by Fast Green/Sirius Red staining in FFPE mouse liver sections and quantified by the Image-Pro Premier software (Rockville, MD). Liver fibrosis was also determined by measuring hydroxyproline levels in total liver samples using the hydroxyproline assay kit (MAK008-1KT; Millipore Sigma, Billerica, MA). To detect activated HSCs, IF for desmin (co-stained with CK-19) was performed in frozen liver sections with semi-quantification ([20], [21]). The mRNA expression of the fibrosis markers, collagen type I alpha 1 (Col1a1) and tissue inhibitor of metalloproteinases 2 (Timp2) and transforming growth factor beta 1 (Tgfb1) was measured in total mouse livers by qPCR.
as §4

[6] = system: Mdr2−/− mice (model of PSC); assay: MC infiltration and activation in liver of Mdr2−/− mice (IHC, qPCR); format: in vivo, mouse; details: 20 mg/kg IP daily, 2 weeks
Method: as §1, §2, §3, §4

[7] = 20 mg/kg IP daily, 2 weeks, qPCR total liver
[8] = 20 mg/kg IP daily, 2 weeks, vs untreated mice
[9] = male Mdr2−/− mice, vs untreated Mdr2−/−, qPCR total liver

SMILES: O=C(O)c1cc(=O)c2c(OCC(O)COc3cccc4oc(C(=O)O)cc(=O)c34)cccc2o1 [cromolyn sodium]
- levels of MC mediators, inflammation, tissue damage, and fibrosis [1]: attenuates

SMILES: CCC[C@@H](NC(=O)N1CC(=NOCC)NC[C@H](Cc2cc(Cl)ccc2OC)C1=O)c1ccc(C(=O)O)c(N)c1 [INVA8001]
- histological damage (H&E) [2]: amelioration
- portal inflammation (H&E) [2]: amelioration
- liver enzymes ([2]; data not shown): no significant changes
- hepatic total bile acid (TBA) accumulation ([2]; liver tissue): significant reduction
- number of infiltrating macrophages (F4/80 staining) ([2]; portal tracts, IHC): significantly reduced
- serum total bile acid (TBA) accumulation ([2]; serum): significant reduction
- p16 immunoreactivity in liver ([3]; IF co-stained with CK-19): reduced
- bile duct mass (CK-19-positive bile ducts) ([3]; IHC): significant reduction
- Cdkn2a expression in isolated cholangiocytes ([3]; qPCR isolated cholangiocytes): reduced
- Cdkn2c expression in isolated cholangiocytes ([3]; qPCR isolated cholangiocytes): reduced
- Glb1l expression in isolated cholangiocytes ([3]; qPCR isolated cholangiocytes): reduced
- Tgfb1 expression in isolated cholangiocytes ([3]; qPCR isolated cholangiocytes): reduced
- Cdkn2a mRNA expression in total liver ([3]; qPCR total liver): reduced
- efficacy in a model of aortic aneurysm (aortic aneurysm model): effective
- safety and tolerability, adverse effects [4]: no significant adverse effects reported
- Col1a1 gene expression in liver [5, 7]: significantly reduced
- Tgfb1 gene expression in liver [5, 7]: significantly reduced
- Timp2 gene expression in liver [5, 7]: significantly reduced
- hepatic fibrosis, FG/SR staining [5, 8]: decreased
- liver hydroxyproline content [5, 8]: lowered
- desmin immunoreactivity (HSC activation) ([5]; 20 mg/kg IP, IF liver sections): significantly reduced
- number of chymase (mMCP1)-positive cells in liver ([6]; Mdr2−/− mice, IHC): significant reduction
- number of tryptase (Tpsb2)-positive cells in liver ([6]; Mdr2−/− mice, IHC): significant reduction
- Fcer1a mRNA expression in liver [6, 9]: attenuated
- Mcpt1 mRNA expression in liver [6, 9]: attenuated
- Tpsb2 mRNA expression in liver [6, 9]: decreasing trend (not statistically significant)
